Test [1] has as its target neutral endopeptidase (NEP) (Homo sapiens, UniProt P08473). Nature of the test: Enzymatic inhibition of neutral endopeptidase, [3H]D-Ala2-Leu-enkephalin as substrate. Type of test: biochemical. The method, then: The enzymatic inhibitory properties of compounds according to the present invention are measured using [^3 H]D-Ala^2 -Leu-enkephalin as a substrate for neutral endopeptidase as described previously by Llorens et al., Biochem. Biophys.

In test [2] the target is peptidyldipeptidase A (ACE) (Homo sapiens, UniProt P12821). Kind of test: Enzymatic inhibition of peptidyldipeptidase A, Z-Phe-His-Leu as substrate. Type of test: biochemical.
peptidyldipeptidase A (ACE), sequence (P12821 30-1306, species assumed): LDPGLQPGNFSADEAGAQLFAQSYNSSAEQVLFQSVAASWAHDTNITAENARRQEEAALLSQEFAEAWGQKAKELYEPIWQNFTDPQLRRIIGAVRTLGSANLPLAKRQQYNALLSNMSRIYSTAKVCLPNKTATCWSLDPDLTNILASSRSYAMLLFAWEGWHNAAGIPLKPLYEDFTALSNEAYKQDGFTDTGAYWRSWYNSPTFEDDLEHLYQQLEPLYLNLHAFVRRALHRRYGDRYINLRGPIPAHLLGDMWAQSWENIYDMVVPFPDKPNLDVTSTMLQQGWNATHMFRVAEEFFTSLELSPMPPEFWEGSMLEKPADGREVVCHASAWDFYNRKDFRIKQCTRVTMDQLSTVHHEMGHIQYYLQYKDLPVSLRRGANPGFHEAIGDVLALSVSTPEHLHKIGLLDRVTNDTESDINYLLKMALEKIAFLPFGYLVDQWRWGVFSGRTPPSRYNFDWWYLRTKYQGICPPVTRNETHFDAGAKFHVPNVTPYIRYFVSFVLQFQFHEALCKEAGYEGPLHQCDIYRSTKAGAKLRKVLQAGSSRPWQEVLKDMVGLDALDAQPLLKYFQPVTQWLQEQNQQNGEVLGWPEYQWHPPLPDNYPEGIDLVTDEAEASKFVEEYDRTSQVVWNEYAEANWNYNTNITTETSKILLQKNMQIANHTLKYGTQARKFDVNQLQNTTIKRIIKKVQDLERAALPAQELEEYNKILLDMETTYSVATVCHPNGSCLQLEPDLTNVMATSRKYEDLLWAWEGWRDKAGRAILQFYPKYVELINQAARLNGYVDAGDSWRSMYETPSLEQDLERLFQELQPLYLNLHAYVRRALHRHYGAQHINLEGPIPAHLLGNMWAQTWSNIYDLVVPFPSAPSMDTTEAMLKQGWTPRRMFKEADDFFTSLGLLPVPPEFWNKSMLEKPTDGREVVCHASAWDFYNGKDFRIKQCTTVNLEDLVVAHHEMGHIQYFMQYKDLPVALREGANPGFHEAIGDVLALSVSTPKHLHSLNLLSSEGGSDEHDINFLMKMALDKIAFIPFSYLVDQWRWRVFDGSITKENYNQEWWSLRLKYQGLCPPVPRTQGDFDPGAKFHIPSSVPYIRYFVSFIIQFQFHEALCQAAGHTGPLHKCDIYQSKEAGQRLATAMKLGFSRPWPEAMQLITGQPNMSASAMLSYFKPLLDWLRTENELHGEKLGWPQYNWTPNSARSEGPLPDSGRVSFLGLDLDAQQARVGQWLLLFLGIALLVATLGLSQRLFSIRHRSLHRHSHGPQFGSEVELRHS

neutral endopeptidase (NEP), sequence (P08473 whole entry, species assumed): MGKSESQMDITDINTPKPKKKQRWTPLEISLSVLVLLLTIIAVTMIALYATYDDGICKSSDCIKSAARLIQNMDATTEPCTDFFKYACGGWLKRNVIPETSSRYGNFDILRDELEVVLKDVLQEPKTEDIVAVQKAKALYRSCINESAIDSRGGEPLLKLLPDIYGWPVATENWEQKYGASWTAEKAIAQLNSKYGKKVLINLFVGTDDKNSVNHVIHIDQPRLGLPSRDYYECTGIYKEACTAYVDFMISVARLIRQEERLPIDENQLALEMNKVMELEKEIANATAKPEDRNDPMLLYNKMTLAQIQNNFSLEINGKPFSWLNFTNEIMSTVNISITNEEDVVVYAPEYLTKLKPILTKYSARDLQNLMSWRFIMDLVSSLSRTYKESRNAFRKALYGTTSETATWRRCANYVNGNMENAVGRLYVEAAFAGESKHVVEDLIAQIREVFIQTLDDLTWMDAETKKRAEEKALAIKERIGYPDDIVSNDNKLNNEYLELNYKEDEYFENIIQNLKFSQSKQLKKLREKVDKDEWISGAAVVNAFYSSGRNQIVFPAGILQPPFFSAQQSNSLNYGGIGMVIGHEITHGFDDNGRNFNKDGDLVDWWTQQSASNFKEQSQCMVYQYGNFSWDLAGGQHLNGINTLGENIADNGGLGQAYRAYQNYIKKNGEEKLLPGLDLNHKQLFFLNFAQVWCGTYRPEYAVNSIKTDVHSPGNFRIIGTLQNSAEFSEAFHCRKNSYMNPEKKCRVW

For the compound `CC(c1ccccc1)C(CSS)C(=O)N[C@@H](Cc1ccc(O)cc1)C(=O)O` (stereo partly shown) [88(B), N-(2-mercaptothiomethyl-1-oxo-3-phenylbutyl)tyrosine], the IC50 (in general, the concentration that gives 50% inhibition) came to 3.1 nM in test [1] (Table IV) and 52 nM in test [2] (Table IV).

On to `CC(C)[C@H](NC(=O)C(S)Cc1ccccc1)C(=O)N[C@@H](Cc1ccc(O)cc1)C(=O)O` (stereo partly shown) [Example 19, N-(2-Mercapto-3-phenylpropanoyl)-Val-Tyr], for which the IC50 in test [1] (Table III) turned out to be 5 ± 2 nM; in test [2] (Table III) it was 4 ± 1 nM.

On to `CC[C@H](C)[C@H](NC(=O)C(S)Cc1ccccc1)C(=O)N[C@@H](Cc1ccc(O)cc1)C(=O)OC` (stereo partly drawn) [Example 20, N-(2-Mercapto-3-phenylpropanoyl)-Ile-Tyr-OMe], for which the values for the half-inhibitory concentration (IC50) in test [1] (Table III) and in test [2] (Table III) were 3.2 ± 0.3 nM and 2.5 ± 0.1 nM, respectively.

With `CCC(C)C(NC(=O)C(S)Cc1ccccc1)C(=O)N1CCCCC1C(=O)O` (stereo not shown) [Example 21, N-(2-Mercapto-3-phenylpropanoyl)-Ile-Pip], the IC50 in test [1] (Table III) stood at 5 ± 2 nM; in test [2] (Table III), 2 ± 1 nM.

In the case of `CCCC[C@H](NC(=O)C(S)Cc1ccccc1)C(=O)N[C@@H](Cc1ccc(O)cc1)C(=O)O` (stereo partly shown) [Example 22, N-(2-Mercapto-3-phenylpropanoyl)-Nle-Tyr], the IC50 turned out to be 18 ± 2 nM in test [1] (Table III) and 30 ± 5 nM in test [2] (Table III).

`CC(C)C[C@H](NC(=O)C(S)Cc1ccccc1)C(=O)N[C@@H](Cc1ccc(O)cc1)C(=O)O` (stereo partly shown) [Example 23, N-(2-Mercapto-3-phenylpropanoyl)-Leu-Tyr]: the IC50 in test [1] (Table III) turned out to be 3 ± 2 nM; in test [2] (Table III), 30 ± 5 nM.

In the case of `CCC(C)C(S)C(=O)N[C@@H](Cc1ccccc1)C(=O)N[C@@H](Cc1ccc(O)cc1)C(=O)O` (stereo partly shown) [Example 24, N-(2-Mercapto-3-methylpentanoyl)-Phe-Tyr], the IC50 came out at 3 ± 1 nM in test [1] (Table III) and 8 ± 2 nM in test [2] (Table III).

For the compound `CCC(C)C(S)C(=O)NC(C(=O)N[C@@H](Cc1ccc(O)cc1)C(=O)O)C(C)C` (stereo partly shown) [Example 25, N-(2-Mercapto-3-methylpentanoyl)-Val-Tyr], the values for the IC50 in test [1] (Table III) and in test [2] (Table III) were 5 ± 2 nM and 2 ± 0.5 nM, respectively.

Regarding `CC(C)C(NC(=O)C(S)CCc1ccccc1)C(=O)N[C@@H](Cc1ccc(O)cc1)C(=O)O` (stereo partly shown) [Example 26, N-(2-Mercapto-4-phenylbutanoyl)-Val-Tyr], the IC50 in test [1] (Table III) is 10 ± 1 nM; in test [2] (Table III), 8 ± 2 nM.

On to `CC[C@H](C)[C@H](NC(=O)C(S)C(C)C)C(=O)N[C@@H](Cc1ccc(O)cc1)C(=O)O` (stereo partly shown) [Example 27, N-(2-Mercapto-3-methylbutanoyl)-Ile-Tyr], for which the IC50 worked out at 1.4 ± 0.2 nM in test [1] (Table III) and 0.3 ± 0.1 nM in test [2] (Table III).

With `CC[C@H](C)[C@H](NC(=O)C(S)c1ccccc1)C(=O)N[C@@H](Cc1ccc(O)cc1)C(=O)O` (stereo partly shown) [Example 28, N-(2-Mercapto-2-phenylacetyl)-Ile-Tyr], the IC50 was 4.5 ± 0.5 nM in test [1] (Table III) and 3.5 ± 0.5 nM in test [2] (Table III).

In test [2] (Table IV), `CC(c1ccccc1)C(CS)C(=O)N[C@@H](Cc1ccc(O)cc1)C(=O)O` (stereo partly shown) [Example 61, N-(2-Mercaptomethyl-1-oxo-3-phenylbutyl)tyrosine] came in with a 50% inhibitory concentration (IC50) of 1.8 nM.

Take `CC(c1ccccc1)C(CS)C(=O)NCC(=O)O` (stereo not shown) [Example 63, N-(2-Mercaptomethyl-1-oxo-3-phenylbutyl)glycine]: the IC50 amounted to 1.3 nM in test [1] (Table IV) and 25 nM in test [2] (Table IV).

On to `CC(c1ccccc1)C(CS)C(=O)N[C@@H](COCc1ccccc1)C(=O)O` (stereo partly shown) [Example 65, N-(2-Mercaptomethyl-1-oxo-3-phenylbutyl)-O-benzylserine], for which the IC50 in test [1] (Table IV) amounted to 4 nM; in test [2] (Table IV) it was 71 nM.

Take `CC(c1ccccc1)C(CS)C(=O)N[C@@H](C)C(=O)O` (stereo partly shown) [Example 67, N-(2-Mercaptomethyl-1-oxo-3-phenylbutyl)alanine]: the figures for the IC50 in test [1] (Table IV) and in test [2] (Table IV) were 2 nM and 2.8 nM, respectively.

For the compound `CCCC[C@H](NC(=O)C(CS)C(C)c1ccccc1)C(=O)O` (stereo partly shown) [Example 69, N-(2-Mercaptomethyl-1-oxo-3-phenylbutyl)norleucine], in test [2] (Table IV), the midpoint of inhibition, the IC50, lay at 5.8 nM.

Regarding `C[C@H](NC(=O)C(CS)C1CCc2ccccc21)C(=O)O` (stereo partly shown) [Example 71, N-[3-Mercapto-2-(1-indanyl)-1-oxopropyl]alanine], the IC50 in test [1] (Table IV) stood at 1.3 nM; in test [2] (Table IV), 7.9 nM.

As for `CC(c1ccc(O)cc1)C(CS)C(=O)N[C@@H](C)C(=O)O` (stereo partly shown) [Example 73, N-[2-Mercaptomethyl,3-(4-hydroxyphenyl)-1-oxobutyl]alanine], the IC50 was 3.5 nM in test [1] (Table IV) and 6.2 nM in test [2] (Table IV).

`CC(c1ccc(O)cc1)C(CS)C(=O)N[C@@H](Cc1ccc(O)cc1)C(=O)O` (stereo partly shown) [Example 75, N-[2-Mercaptomethyl-3-(4-hydroxyphenyl)-1-oxobutyl]tyrosine]: the IC50 was 1.8 nM in test [1] (Table IV) and 3.5 nM in test [2] (Table IV).

Turning to `CC(=O)SCC(C(=O)N[C@@H](C)C(=O)O)C(C)c1ccc(F)cc1` (stereo partly shown) [Example 78, N-[2-Acetylthiomethyl-3-(4-fluorophenyl)-1-oxobutyl]alanine], the IC50 was found to be 1.9 nM in test [1] (Table IV) and 8.5 nM in test [2] (Table IV).

In the case of `CC(=O)SC(C(=O)N[C@@H](Cc1ccc(O)cc1)C(=O)O)C(C)c1ccc(F)cc1` (stereo partly shown) [Example 80, N-[2-Acetylthio-3-(4-fluorophenyl)-1-oxobutyl]tyrosine], the IC50 in test [1] (Table IV) was 4.8 nM; in test [2] (Table IV), 5.9 nM.

On to `CC(c1ccc(F)c(F)c1)C(CS)C(=O)N[C@@H](C)C(=O)O` (stereo partly shown) [Example 82, N-[2-Mercaptomethyl-3-(3,4-difluorophenyl)-1-oxobutyl]alanine], for which the figures for the IC50 in test [1] (Table IV) and in test [2] (Table IV) were 3 nM and 5 nM, respectively.

As for `CC(c1ccc(F)c(F)c1)C(CS)C(=O)N[C@@H](Cc1ccc(O)cc1)C(=O)O` (stereo partly shown) [Example 84, N-[2-Mercaptomethyl-3-(3,4-difluorophenyl)-1-oxobutyl]tyrosine], the values for the IC50 in test [1] (Table IV) and in test [2] (Table IV) were 6.3 nM and 3.5 nM, respectively.

Regarding `CC(c1ccccc1)C(CSS)C(=O)N[C@@H](Cc1ccc(O)cc1)C(=O)O` (stereo partly shown) [Example 88(A), N-(2-Mercaptothiomethyl-1-oxo-3-phenylbutyl)tyrosine], the IC50 was 1 nM in test [1] (Table IV) and 3 nM in test [2] (Table IV).

For the origin of these results see US5591891A, “N-[Mercaptoacyl (amino acid or peptide ) ] compounds and S-lipophiIic aliphatic carbonyl derivatives thereof as antihypertensives” (Institut National de la Sante et de la Recherche Medicale …, priority 1994, dated 1997).
